Reference: patent US20170064966A1, “ANTIMICROBIAL COMPOSITIONS AND METHODS AND USES THEREOF” (BAR ILAN UNIVERSITY, priority 2015, published 2017)
Like-named read-outs stand apart in the source and are kept apart here. Non-standard residues stand in square brackets, D forms with d. No end group written: not given here.

Experiments:
[1] = system: PA biofilm formation; assay: Static biofilm model with N′-loop derived peptides (crystal violet); settings: for anti-biofilm activity / inhibition of PA biofilm formation: peptides 1-6 at 0.01, 0.05 and 0.1 mM, FIG. 10B
Protocol: The static biofilm model was used to assess the ability of N′-loop derived peptides to reduce PA biofilm formation. Briefly, PA wild type bacteria were grown over night in M9 medium (20 mM NH4Cl; 12 mM Na2HPO4; 22 mM KH2PO4; 8.6 mM NaCl; 1 mM MgSO4; 1 mM CaCl2; 11 mM Dextrose) at 37 C. Following growth cells were diluted to a final concentration of 5*10^7 in M9 medium contacting 1/10 the phosphate concentration. 100 microliter of the bacterial suspension was transferred to each well of 96 wells plate. The six tested peptides were added at different concentrations 0.01, 0.05 and 0.1 mM. The plate was then incubated for 24 h at 37° C. to allow biofilm development. After incubation the medium was removed and the wells were carefully washed twice with sterile ddsH2O to remove planktonic bacteria. Next 150 microliter of 1% crystal violet (w/v) was added to each well in order to stain the biofilm cells. The stain was allowed to incubate for 15 min after which the wells were washed again with ddsH2O. The stain attached to the biofilm was then extracted by adding 200 microliter ethanol (95%). The biofilm biomass was quantified by reading the absorbance at 595nm using an ELISA plate reader.

[2] = system: P. aeruginosa strains PAO1, PA14 and clinical isolate DK2; assay: Flow cell biofilm experiment in the presence of inhibitory peptide
Protocol: Bacterial strains (Pseudomonas aeruginosa strains PA14 and DK2) containing the plasmid pUCP-GFP inserted to bacterial cells by electroporation (pUCP18 that constitutionally expresses the GFP under the lac promoter), were inoculated from −80° C. stock into 2 mL TSB containing 300 μg/mL Carb (to maintain the pUCP-GFP plasmid) and grown overnight at 37° C. with agitation. The next day, bacteria were diluted to 0.05 OD (595 nm) in 1% TSB containing the antibiotics and loaded onto 6 channel 1μ-Slide I^0.4 Luer uncoated (Ibidi). The slide was connected to a flow cell containing fresh 1% TSB with 0.05 Mm, 0.1 mM peptides or without peptides. Fresh media flowed through the slide by a pump at 10 mL/h (2 rpm). Bacteria were grown in the slide for 48 hours at 37° C. After 48 hours, 3 representative pictures from the beginning and the middle of the slide, were taken using SP8 confocal HyD microscope (Leica). Pictures were analyzed by Imaris software (version 7.2.2).

[3] = measured under similar pH conditions, ref (18); read-out: phosphate binding (KD) reported for PstS orthologs; cited from earlier work
[4] = format: binding; settings: P^32-labeled phosphate, pH 7.5, FIG. 3C

AIDPALPE
anti-biofilm activity / inhibition of PA biofilm formation [1]: inhibits most effectively biofilm formation | anti-biofilm activity / inhibition of PA biofilm formation ([1]; listed as peptide 3): most effective peptide

modified peptide-3: enantiomer of peptide-3 having the N-terminal Ala and C-terminal Glu residues in the D-form (SEQ ID NO. 56) ([dA]IDPALP[dE])
inhibition of PA biofilm formation ([1]; 0.1 millimolar modified peptide 3, FIG. 10C): efficiently inhibited biofilm formation | biofilm formation (biovolume) ([2]; 0.1 mM in media, 48 h, strains PAO1, PA14, DK2, FIG. 11A): significantly reduces the biofilm formation | biofilm formation phenotype, confocal microscope images ([2]; strains PAO1, PA14, DK2, 48 h, FIG. 11B): changes the biofilm formation phenotype of all PA strains examined

B1: E. coli PstS: PstS ortholog from E. coli, literature value (18) (protein, UniProt P0AG82 26-346, looked up)
Phosphate-binding protein PstS: EASLTGAGATFPAPVYAKWADTYQKETGNKVNYQGIGSSGGVKQIIANTVDFGASDAPLSDEKLAQEGLFQFPTVIGGVVLAVNIPGLKSGELVLDGKTLGDIYLGKIKKWDDEAIAKLNPGLKLPSQNIAVVRRADGSGTSFVFTSYLAKVNEEWKNNVGTGSTVKWPIGLGGKGNDGIAAFVQRLPGAIGYVEYAYAKQNNLAYTKLISADGKPVSPTEENFANAAKGADWSKTFAQDLTNQKGEDAWPITSTTFILIHKDQKKPEQGTEVLKFFDWAYKTGAKQANDLDYASLPDSVVEQVRAAWKTNIKDSSGKPLY
Kd [3]: ~3000 nM

B2: wild-type PstS: periplasmic phosphate-binding subunit of the P. aeruginosa Pst transporter, purified from E. coli (protein)
chain: MKLKRLMAALTFVAAGVGAASAVAAIDPALPEYQKASGVSGNLSSVGSDTLANLMTMWAEEYKRLYPNVNIQIQAAGSSTAPPALTEGTANLGPMSRKMKDVELQAFEQKYGYKPTAVPVAVDALAIFVHKDNPIKGLTMQQVDAIFSATRLCGSKQDVKTWGDLGLTGDWAKKPVQLFGRNSVSGTYGYFKEEALCKGDFRPNVNEQPGSASVVQSVSQSLNGIGYSGIGYKTASVKTVALAKKEGAAFVEDNEQNALNGTYPLSRFLYVYVNKAPNKPLDPLEAQFLKLVLSKTGQQVVVKDGYIPLPAKVAEKAIKELGL
modifications: P.aeruginosa PstS - accession number NP_254056.1
Kd ([4]; read-out: dissociation constant (KD) for PO4): 840 ± 120 nM

B3: S96E (protein)
chain: MKLKRLMAALTFVAAGVGAASAVAAIDPALPEYQKASGVSGNLSSVGSDTLANLMTMWAEEYKRLYPNVNIQIQAAGSSTAPPALTEGTANLGPMERKMKDVELQAFEQKYGYKPTAVPVAVDALAIFVHKDNPIKGLTMQQVDAIFSATRLCGSKQDVKTWGDLGLTGDWAKKPVQLFGRNSVSGTYGYFKEEALCKGDFRPNVNEQPGSASVVQSVSQSLNGIGYSGIGYKTASVKTVALAKKEGAAFVEDNEQNALNGTYPLSRFLYVYVNKAPNKPLDPLEAQFLKLVLSKTGQQVVVKDGYIPLPAKVAEKAIKELGL
modifications: The S96E PstS mutant
dissociation constant (KD) for PO4 [4]: very weak or no binding
